From US10626144B2, “Peptide derivatives and uses thereof” (Nosopharm, priority 2014, dated 2020)
Numbered stars: 1 amine (or outer) side, 2 acyl side, 3 side chain; on linkers, the order of the positions; unused ones are H or OH. Square brackets hold non-standard residues; d marks the D form. Peptide text beside a SMILES is read from it. * marks the point of attachment. Pro(trans-4-F) = O=C(O)[C@@H]1C[C@@H](F)CN1; Pro(cis-4-F) = O=C(O)[C@@H]1C[C@H](F)CN1; Pro(4,4-F2) = O=C(O)[C@@H]1CC(F)(F)CN1; Dab(3S-OH) = NC[C@H](O)[C@H](N)C(=O)O; X4 = N=C(N)NCC/C=C(/N[*:1])C(=O)[*:2]; Ethylenediamine = C(CN[*:2])N[*:1]; ΔZArg = N=C(N)NCC/C=C(\N)C(=O)O; NMeK = CN[C@@H](CCCCN)C(=O)O; dOrn = NCCC[C@@H](N)C(=O)O; Dab = NCC[C@H](N)C(=O)O; NH(CH2)5NH2 = NCCCCCN*; NH(CH2)4NH2 = NCCCCN*

Tests used:
Test in all cases: MIC, broth microdilution (CLSI), reference strain
Settings in all cases: CAMHB
[1] = test system: Pseudomonas aeruginosa ATCC 27853
[2] = test system: Escherichia coli ATCC 25922
[3] = test system: Acinetobacter baumannii ATCC 19606
[4] = test system: Staphylococcus aureus ATCC 13709

For `N=C(N)NCC/C=C(\NC(=O)[C@H](CCCCN)NC(=O)[C@H](Cc1cnc[nH]1)NC(=O)[C@@H]1CCCN1C(=O)[C@@H](CCCN)NC(=O)CNC(=O)[C@H](CCN)NC(=O)[C@H](CCN)NC(=O)[C@@H](N)CCCCN)C(=O)N[C@@H](CCCCN)C(=O)NCCCCN` [11.1] (H-K[Dab][Dab]G[dOrn]PHK[ΔZArg]K-{NH(CH2)4NH2}), the “Pa: MIC Pseudomonas aeruginosa ATCC 27853” value [1] was “− (>32 μg/mL)”, the “Ec: MIC Escherichia coli ATCC 25922” value [2] was “− (>32 μg/mL)” and the “Ab: MIC Acinetobacter baumannii ATCC 19606” value [3] was “− (>32 μg/mL)”. The “Sa: MIC Staphylococcus aureus ATCC 13709” value [4] was “++ (≤8 μg/mL)”.
For `N=C(N)NCC/C=C(\NC(=O)[C@H](CCCCN)NC(=O)[C@H](Cc1cnc[nH]1)NC(=O)[C@@H]1CCCN1C(=O)[C@@H](CCCN)NC(=O)CNC(=O)[C@@H](NC(=O)[C@H](CCN)NC(=O)[C@@H](N)CCCCN)[C@@H](O)CN)C(=O)N[C@@H](CCCCN)C(=O)NCCCCN` [12.1] (H-K[Dab][Dab(3S-OH)]G[dOrn]PHK[ΔZArg]K-{NH(CH2)4NH2}), the “Pa: MIC Pseudomonas aeruginosa ATCC 27853” value [1] was “− (>32 μg/mL)”, the “Ec: MIC Escherichia coli ATCC 25922” value [2] was “− (>32 μg/mL)” and the “Ab: MIC Acinetobacter baumannii ATCC 19606” value [3] was “− (>32 μg/mL)”. The “Sa: MIC Staphylococcus aureus ATCC 13709” value [4] was “++ (≤8 μg/mL)”.
`N=C(N)NCC/C=C(\NC(=O)[C@H](CCCCN)NC(=O)[C@H](Cc1cnc[nH]1)NC(=O)[C@@H]1CCCN1C(=O)[C@@H](CCCN)NC(=O)CNC(=O)CNC(=O)[C@H](CCN)NC(=O)[C@@H](N)CCCCN)C(=O)N[C@@H](CCCCN)C(=O)NCCCCN` [13.1] (H-K[Dab]GG[dOrn]PHK[ΔZArg]K-{NH(CH2)4NH2}) was tested, and the “Pa: MIC Pseudomonas aeruginosa ATCC 27853” value [1] was “− (>32 μg/mL)”, the “Ec: MIC Escherichia coli ATCC 25922” value [2] was “− (>32 μg/mL)” and the “Ab: MIC Acinetobacter baumannii ATCC 19606” value [3] was “− (>32 μg/mL)”. The “Sa: MIC Staphylococcus aureus ATCC 13709” value [4] was “+ (≤32 μg/mL)”.
In the case of `C[C@H](NC(=O)[C@H](CCN)NC(=O)[C@@H](N)CCCCN)C(=O)NCC(=O)N[C@H](CCCN)C(=O)N1CCC[C@H]1C(=O)N[C@@H](Cc1cnc[nH]1)C(=O)N[C@@H](CCCCN)C(=O)N/C(=C/CCNC(=N)N)C(=O)N[C@@H](CCCCN)C(=O)NCCCCN` [14.1] (H-K[Dab]AG[dOrn]PHK[X4]K-{NH(CH2)4NH2}), the “Pa: MIC Pseudomonas aeruginosa ATCC 27853” value [1] is reported as “− (>32 μg/mL)”, the “Ec: MIC Escherichia coli ATCC 25922” value [2] is reported as “+ (≤32 μg/mL)” and the “Ab: MIC Acinetobacter baumannii ATCC 19606” value [3] is reported as “− (>32 μg/mL)”. The “Sa: MIC Staphylococcus aureus ATCC 13709” value [4] was “++ (≤8 μg/mL)”.
`C[C@H](NC(=O)[C@H](CCN)NC(=O)[C@@H](N)CCCCN)C(=O)NCC(=O)N[C@H](CCCN)C(=O)N1CCC[C@H]1C(=O)N[C@@H](Cc1cnc[nH]1)C(=O)N[C@@H](CCCCN)C(=O)N/C(=C\CCNC(=N)N)C(=O)N[C@@H](CCCCN)C(=O)NCCCCN` [14.2] (H-K[Dab]AG[dOrn]PHK[ΔZArg]K-{NH(CH2)4NH2}) was tested, and the “Pa: MIC Pseudomonas aeruginosa ATCC 27853” value [1] was “− (>32 μg/mL)”, the “Ec: MIC Escherichia coli ATCC 25922” value [2] was “+ (≤32 μg/mL)” and the “Ab: MIC Acinetobacter baumannii ATCC 19606” value [3] was “− (>32 μg/mL)”. The “Sa: MIC Staphylococcus aureus ATCC 13709” value [4] was “++ (≤8 μg/mL)”.
For `C[C@H](NC(=O)[C@H](CCN)NC(=O)[C@@H](N)CCCCN)C(=O)NCC(=O)N[C@H](CCCN)C(=O)N1C[C@@H](F)C[C@H]1C(=O)N[C@@H](Cc1cnc[nH]1)C(=O)N[C@@H](CCCCN)C(=O)N/C(=C\CCNC(=N)N)C(=O)N[C@@H](CCCCN)C(=O)NCCCCN` [14.4] (H-K[Dab]AG[dOrn][Pro(cis-4-F)]HK[ΔZArg]K-{NH(CH2)4NH2}), the “Pa: MIC Pseudomonas aeruginosa ATCC 27853” value [1] was “− (>32 μg/mL)”, the “Ec: MIC Escherichia coli ATCC 25922” value [2] was “− (>32 μg/mL)” and the “Ab: MIC Acinetobacter baumannii ATCC 19606” value [3] was “− (>32 μg/mL)”. For the same compound, the “Sa: MIC Staphylococcus aureus ATCC 13709” value [4] was “++ (≤8 μg/mL)”.
With `C[C@H](NC(=O)[C@H](CCN)NC(=O)[C@@H](N)CCCCN)C(=O)NCC(=O)N[C@H](CCCN)C(=O)N1CCC[C@H]1C(=O)N[C@@H](Cc1cnc[nH]1)C(=O)N[C@@H](CCCCN)C(=O)N/C(=C\CCNC(=N)N)C(=O)N[C@@H](CCCCN)C(=O)NCCCCCN` [14.5] (H-K[Dab]AG[dOrn]PHK[ΔZArg]K-{NH(CH2)5NH2}) the “Pa: MIC Pseudomonas aeruginosa ATCC 27853” value [1] was “− (>32 μg/mL)”, the “Ec: MIC Escherichia coli ATCC 25922” value [2] was “+ (≤32 μg/mL)” and the “Ab: MIC Acinetobacter baumannii ATCC 19606” value [3] was “− (>32 μg/mL)”. For the same compound, the “Sa: MIC Staphylococcus aureus ATCC 13709” value [4] was “++ (≤8 μg/mL)”.
In the case of `C[C@H](NC(=O)[C@H](CCN)NC(=O)[C@@H](N)CCCCN)C(=O)NCC(=O)N[C@H](CCCN)C(=O)N1CCC[C@H]1C(=O)N[C@@H](Cc1cnc[nH]1)C(=O)N[C@@H](CCCCN)C(=O)N/C(=C\CCNC(=N)N)C(=O)N[C@@H](CCCCN)C(=O)NCCN` [14.6] (H-K[Dab]AG[dOrn]PHK[ΔZArg]K-Ethylenediamine), the “Pa: MIC Pseudomonas aeruginosa ATCC 27853” value [1] is reported as “− (>32 μg/mL)”, the “Ec: MIC Escherichia coli ATCC 25922” value [2] is reported as “+ (≤32 μg/mL)” and the “Ab: MIC Acinetobacter baumannii ATCC 19606” value [3] is reported as “− (>32 μg/mL)”. For the same compound, the “Sa: MIC Staphylococcus aureus ATCC 13709” value [4] was “++ (≤8 μg/mL)”.
For `C[C@H](NC(=O)[C@H](CCN)NC(=O)[C@@H](N)CCCCN)C(=O)NCC(=O)N[C@H](CCCN)C(=O)N1C[C@H](F)C[C@H]1C(=O)N[C@@H](Cc1cnc[nH]1)C(=O)N[C@@H](CCCCN)C(=O)N/C(=C\CCNC(=N)N)C(=O)N[C@@H](CCCCN)C(=O)NCCCCN` [14.7] (H-K[Dab]AG[dOrn][Pro(trans-4-F)]HK[ΔZArg]K-{NH(CH2)4NH2}), the “Pa: MIC Pseudomonas aeruginosa ATCC 27853” value [1] was “− (>32 μg/mL)”, the “Ec: MIC Escherichia coli ATCC 25922” value [2] was “− (>32 μg/mL)” and the “Ab: MIC Acinetobacter baumannii ATCC 19606” value [3] was “− (>32 μg/mL)”. The “Sa: MIC Staphylococcus aureus ATCC 13709” value [4] was “++ (≤8 μg/mL)”.
With `CN[C@@H](CCCCN)C(=O)N[C@@H](CCN)C(=O)N[C@@H](C)C(=O)NCC(=O)N[C@H](CCCN)C(=O)N1CCC[C@H]1C(=O)N[C@@H](Cc1cnc[nH]1)C(=O)N[C@@H](CCCCN)C(=O)N/C(=C\CCNC(=N)N)C(=O)N[C@@H](CCCCN)C(=O)NCCCCN` [14.9] (H-[NMeK][Dab]AG[dOrn]PHK[ΔZArg]K-{NH(CH2)4NH2}) the “Pa: MIC Pseudomonas aeruginosa ATCC 27853” value [1] was “− (>32 μg/mL)”, the “Ec: MIC Escherichia coli ATCC 25922” value [2] was “− (>32 μg/mL)” and the “Ab: MIC Acinetobacter baumannii ATCC 19606” value [3] was “− (>32 μg/mL)”. The “Sa: MIC Staphylococcus aureus ATCC 13709” value [4] was “++ (≤8 μg/mL)”.
For `C[C@H](NC(=O)[C@H](CCN)NC(=O)[C@@H](N)CCCCN)C(=O)NCC(=O)N[C@H](CCCN)C(=O)N1CC(F)(F)C[C@H]1C(=O)N[C@@H](Cc1cnc[nH]1)C(=O)N[C@@H](CCCCN)C(=O)N/C(=C\CCNC(=N)N)C(=O)N[C@@H](CCCCN)C(=O)NCCCCN` [14.10] (H-K[Dab]AG[dOrn][Pro(4,4-F2)]HK[ΔZArg]K-{NH(CH2)4NH2}), the “Pa: MIC Pseudomonas aeruginosa ATCC 27853” value [1] was “− (>32 μg/mL)”, the “Ec: MIC Escherichia coli ATCC 25922” value [2] was “− (>32 μg/mL)” and the “Ab: MIC Acinetobacter baumannii ATCC 19606” value [3] was “− (>32 μg/mL)”. For the same compound, the “Sa: MIC Staphylococcus aureus ATCC 13709” value [4] was “++ (≤8 μg/mL)”.
With `C[C@H](NC(=O)[C@@H](NC(=O)[C@@H](N)CCCCN)[C@@H](O)CN)C(=O)NCC(=O)N[C@H](CCCN)C(=O)N1CCC[C@H]1C(=O)N[C@@H](Cc1cnc[nH]1)C(=O)N[C@@H](CCCCN)C(=O)N/C(=C\CCNC(=N)N)C(N)=O` [24.5] (H-K[Dab(3S-OH)]AG[dOrn]PHK[ΔZArg]-NH2) the “Pa: MIC Pseudomonas aeruginosa ATCC 27853” value [1] was “− (>32 μg/mL)” and the “Ab: MIC Acinetobacter baumannii ATCC 19606” value [3] was “− (>32 μg/mL)”.
With `C[C@H](NC(=O)[C@@H](NC(=O)[C@@H](N)CCCCN)[C@@H](O)CN)C(=O)NCC(=O)N[C@H](CCCN)C(=O)N1CCC[C@H]1C(=O)N[C@@H](Cc1cnc[nH]1)C(=O)N[C@@H](CCCCN)C(=O)N/C(=C\CCNC(=N)N)C(N)=O` [24.125] (H-K[Dab(3S-OH)]AG[dOrn]PHK[ΔZArg]-NH2) the “Ec: MIC Escherichia coli ATCC 25922” value [2] was “++ (≤8 μg/mL)” and the “Sa: MIC Staphylococcus aureus ATCC 13709” value [4] was “++ (≤8 μg/mL)”.
